Assays:
[1] = molecular target: endothelin receptors; assay: Inhibition of endothelin binding to human placenta membranes; conditions: 125I-endothelin 20 pM, 20° C. for 2 hours or 4° C. for 24 hours, read-out: IC50 (concentration required to inhibit 50% of the specific binding of 125I-endothelin)
Experimental: I: Inhibition of endothelin binding to human placenta membranes (see. Life Sci 44:1429 (1989))
Human placenta is homogenized in 5 mM Tris buffer, pH 7.4, which contains 1 mM MgCl2 and 250 mM sucrose. The homogenizate is centrifuged at 4° C. and 3000 g for 15 minutes, the supernatant containing the plasma membrane fraction is centrifuged with 72000 g for 30 minutes and the precipitate is washed with 75 mM Tris buffer, pH 7.4, which contains 25 mM MgCl2. Thereafter, precipitate obtained from, in each case, 10 g of original tissue is suspended in 1 ml of 75 mM Tris buffer, pH 7.4, containing 25 mM MgCl2 and 250 mM sucrose, and freeze-dried at -20° C. in 1 ml aliquots.
For the binding assay, the freeze-dried membrane preparations are thawed and, after centrifugation at 20° C. and 25000 g for 10 minutes, re-suspended in assay buffer (50 mM Tris buffer, pH 7.4, containing 25 mM MnCl2, 1 mM EDTA and 0.5% of bovine serum albumin). […] of this membrane suspension containing […] of protein are incubated with […] of ^125 I-endothelin (specific activity 2200 Ci/mMol) in assay buffer (25000 cpm, final concentration 20 pM) and […] of assay buffer containing varying concentrations of test compound. The incubation is carried out at 20° C. for 2 hours or at 4° C. for 24 hours. The separation of free and membrane-bound radioligands is carried out by filtration over a glass fibre filter.
The inhibitory activity of compounds of formula I determined in this test procedure is given in Table 1 as the IC50, that is, as the concentration […] which is required to inhibit 50% of the specific binding of ^125 I-endothelin.

[2] = test system: rats; assay: Inhibitory activity on vasoconstriction in vivo in rats (renal ischaemia, renal perfusion by Doppler); design: species or system rat; conditions: 45 minutes renal ischaemia; compound given 10 minutes before, 5 mg/kg i.a. or 10 mg/kg i.v.; control tests 43±4% reduction vs preischaemic value
Experimental: III. The inhibitory activity of the compounds of formula I on vasoconstriction can be observed in vivo in rats in the test procedure described hereinafter:
Rats were anaesthetized with Na thiobutabarbital (100 mg/kg i.p.). A catheter for measuring the systemic arterial blood pressure was placed through the femoral artery and a catheter was placed in the vena cava via the femoral vein for injection of the test compounds. A Doppler sonde was placed around the left renal artery and attached to a Doppler measuring apparatus. A renal ischaemia was produced by pinching off the left renal artery at its point of exit for 45 minutes. 10 minutes prior to the induction of the ischaemia the test compounds were administered intraarterially (i.a.) in dosages of 5 mg/kg or intravenously (i.v.) in dosages of 10 mg/kg. In control tests, the renal perfusion was reduced by 43±4% compared to the preischaemic value.

[3] = test system: isolated rat aorta rings (endothelin-induced contractions); assay: Inhibition of endothelin-induced contractions in isolated rat aorta rings; format: cell-based, rat (adult Wistar-Kyoto); conditions: in the absence of test compounds; read-out: EC50 of endothelin (concentration required for a half-maximum contraction)
Experimental: II. Inhibition of endothelin-induced contractions in isolated rat aorta rings
Rings with a length of 5 mm were cut out from the thorax aorta of adult Wistar-Kyoto rats. The endothelium was removed by lightly rubbing the internal surface. Each ring was immersed at 37° C. in 10 ml of Krebs-Henseleit solution in an isolated bath while gassing with 95% O2 and 5% CO2. The isometric stretching of the rings was measured. The rings were stretched to a pretension of 3 g. After incubation for 10 minutes with the test compound or vehicle, cumulative dosages of endothelin-1 were added. The activity of the test compound was determined by calculating the dosage ratios, that is, the shift to the right (shift to higher values) of the EC50 of endothelin induced by […] of test compound, with EC50 denoting the endothelin concentration required for a half-maximum contraction. […] The EC50 of endothelin in the absence of test compounds is 0.3 nM.

Row | Molecule | IC50 [1] | % Decrease in renal perfusion [2] | EC50 [3]
1 | COc1ccccc1Oc1c(NS(=O)(=O)c2ccc(C(C)(C)C)cc2)ncnc1OCCO [Example 1, p-t-butyl-N-[6-(2-hydroxyethoxy)-5-(o-methoxyphenoxy)-4-pyrimidinyl]benzenesulfonamide] | 115 nM | 13.4 ± 5.2% | 
2 | COc1ccccc1Oc1c(NS(=O)(=O)c2ccc(C(C)C)cc2)ncnc1OCCO [Example 2, N-[6-(hydroxyethoxy)-5-(o-methoxyphenoxy)-4-pyrimidinyl]-p-isopropylbenzenesulfonamide] | 100 nM |  | 
3 | COc1cccc(Oc2c(NS(=O)(=O)c3ccc(C(C)(C)C)cc3)ncnc2OCCO)c1 [Example 6, p-t-butyl-N-[6-(2-hydroxyethoxy)-5-(m-methoxyphenoxy)-4-pyrimidinyl]benzenesulphonamide] | 200 nM | 11.7 ± 4.7% | 
4 | COc1ccccc1Oc1c(NS(=O)(=O)c2ccc(C(C)C)cc2)nc(-c2ccccc2)nc1OCCO [Example 12, N-[6-(2-hydroxyethoxy)-5-(o-methoxyphenoxy)-2-phenyl-4-pyrimidinyl]-p-isopropylbenzenesulfonamide] | 125 nM |  | 
5 | COc1ccccc1Oc1c(NS(=O)(=O)c2ccc(C(C)C)cc2)nc(C)nc1OCCO [Example 24, N-[6-(2-hydroxyethoxy)-5-(o-methoxyphenoxy)-2-methyl-4-pyrimidinyl]-p-isopropylbenzenesulfonamide] | 73 nM |  | 
6 | COc1ccccc1Oc1c(NS(=O)(=O)c2ccc(C(C)C)cc2)nc(C(F)(F)F)nc1OCCO [Example 25] | 50 nM |  | 
7 | CC(C)(C)c1ccc(S(=O)(=O)Nc2ncnc(OCCO)c2Oc2ccc3c(c2)OCO3)cc1 [Example 27, N-[5-(1,3-benzodioxol-5-yloxy)-6-(2-hydroxyethoxy)-4-pyrimidinyl]-p-tert-butylbenzenesulfonamide] | 99 nM |  | 
8 | endothelin: endothelin-1, agonist added in cumulative dosages to contract rat aorta rings |  |  | 0.3 nM
